Measured values reported in the NIST ThermoML archive (doi:10.1021/je600554h).

Test: xn = mol fraction of the nth substance listed
Conditions: 100 kPa, Liquid; for viscosity: Capillary tube (Ostwald / Ubbelohde) method

COC(C)(C)C [2-methoxy-2-methylpropane] + CCCCCCCC
Conditions	mass density [kg/m3]	viscosity [mPa·s]
273.15 K, x1 = 0.1019	–	0.685
273.15 K, x1 = 0.1059	721.15	–
273.15 K, x1 = 0.2123	724.203	–
273.15 K, x1 = 0.2189	–	0.651
273.15 K, x1 = 0.3019	727.065	–
273.15 K, x1 = 0.3026	–	0.622
273.15 K, x1 = 0.4029	–	0.597
273.15 K, x1 = 0.4099	730.835	–
273.15 K, x1 = 0.4995	–	0.57
273.15 K, x1 = 0.5053	734.583	–
273.15 K, x1 = 0.6005	738.614	–
273.15 K, x1 = 0.6099	–	0.549
273.15 K, x1 = 0.6934	742.992	–
273.15 K, x1 = 0.7072	–	0.525
273.15 K, x1 = 0.7967	748.318	–
273.15 K, x1 = 0.7981	–	0.494
273.15 K, x1 = 0.8941	–	0.472
273.15 K, x1 = 0.8975	754.329	–
278.15 K, x1 = 0.1019	–	0.638
278.15 K, x1 = 0.1059	717.106	–
278.15 K, x1 = 0.2123	720.082	–
278.15 K, x1 = 0.2189	–	0.607
278.15 K, x1 = 0.3019	722.866	–
278.15 K, x1 = 0.3026	–	0.583
278.15 K, x1 = 0.4029	–	0.559
278.15 K, x1 = 0.4099	726.533	–
278.15 K, x1 = 0.4995	–	0.534
278.15 K, x1 = 0.5053	730.183	–
278.15 K, x1 = 0.6005	734.106	–
278.15 K, x1 = 0.6099	–	0.514
278.15 K, x1 = 0.6934	738.371	–
278.15 K, x1 = 0.7072	–	0.492
278.15 K, x1 = 0.7967	743.56	–
278.15 K, x1 = 0.7981	–	0.462
278.15 K, x1 = 0.8941	–	0.442
278.15 K, x1 = 0.8975	749.42	–
283.15 K, x1 = 0.1019	–	0.597
283.15 K, x1 = 0.1059	713.046	–
283.15 K, x1 = 0.2123	715.938	–
283.15 K, x1 = 0.2189	–	0.568
283.15 K, x1 = 0.3019	718.644	–
283.15 K, x1 = 0.3026	–	0.545
283.15 K, x1 = 0.4029	–	0.523
283.15 K, x1 = 0.4099	722.208	–
283.15 K, x1 = 0.4995	–	0.501
283.15 K, x1 = 0.5053	725.756	–
283.15 K, x1 = 0.6005	729.573	–
283.15 K, x1 = 0.6099	–	0.483
283.15 K, x1 = 0.6934	733.719	–
283.15 K, x1 = 0.7072	–	0.462
283.15 K, x1 = 0.7967	738.766	–
283.15 K, x1 = 0.7981	–	0.435
283.15 K, x1 = 0.8941	–	0.417
283.15 K, x1 = 0.8975	744.471	–
288.15 K, x1 = 0.1019	–	0.559
288.15 K, x1 = 0.1059	708.972	–
288.15 K, x1 = 0.2123	711.779	–
288.15 K, x1 = 0.2189	–	0.533
288.15 K, x1 = 0.3019	714.403	–
288.15 K, x1 = 0.3026	–	0.514
288.15 K, x1 = 0.4029	–	0.492
288.15 K, x1 = 0.4099	717.859	–
288.15 K, x1 = 0.4995	–	0.471
288.15 K, x1 = 0.5053	721.306	–
288.15 K, x1 = 0.6005	725.009	–
288.15 K, x1 = 0.6099	–	0.454
288.15 K, x1 = 0.6934	729.044	–
288.15 K, x1 = 0.7072	–	0.435
288.15 K, x1 = 0.7967	733.942	–
288.15 K, x1 = 0.7981	–	0.41
288.15 K, x1 = 0.8941	–	0.393
288.15 K, x1 = 0.8975	739.489	–
293.15 K, x1 = 0.1019	–	0.525
293.15 K, x1 = 0.1059	704.884	–
293.15 K, x1 = 0.2123	707.601	–
293.15 K, x1 = 0.2189	–	0.501
293.15 K, x1 = 0.3019	710.139	–
293.15 K, x1 = 0.3026	–	0.483
293.15 K, x1 = 0.4029	–	0.464
293.15 K, x1 = 0.4099	713.488	–
293.15 K, x1 = 0.4995	–	0.445
293.15 K, x1 = 0.5053	716.833	–
293.15 K, x1 = 0.6005	720.419	–
293.15 K, x1 = 0.6099	–	0.428
293.15 K, x1 = 0.6934	724.332	–
293.15 K, x1 = 0.7072	–	0.411
293.15 K, x1 = 0.7967	729.066	–
293.15 K, x1 = 0.7981	–	0.388
293.15 K, x1 = 0.8941	–	0.372
293.15 K, x1 = 0.8975	734.467	–
298.15 K, x1 = 0.1019	–	0.495
298.15 K, x1 = 0.1059	700.768	–
298.15 K, x1 = 0.2123	703.393	–
298.15 K, x1 = 0.2189	–	0.473
298.15 K, x1 = 0.3019	705.856	–
298.15 K, x1 = 0.3026	–	0.455
298.15 K, x1 = 0.4029	–	0.439
298.15 K, x1 = 0.4099	709.092	–
298.15 K, x1 = 0.4995	–	0.42
298.15 K, x1 = 0.5053	712.324	–
298.15 K, x1 = 0.6005	715.799	–
298.15 K, x1 = 0.6099	–	0.405
298.15 K, x1 = 0.6934	719.586	–
298.15 K, x1 = 0.7072	–	0.388
298.15 K, x1 = 0.7967	724.172	–
298.15 K, x1 = 0.7981	–	0.367
298.15 K, x1 = 0.8975	729.408	–
303.15 K, x1 = 0.1019	–	0.468
303.15 K, x1 = 0.1059	696.633	–
303.15 K, x1 = 0.2123	699.177	–
303.15 K, x1 = 0.2189	–	0.447
303.15 K, x1 = 0.3019	701.546	–
303.15 K, x1 = 0.3026	–	0.43
303.15 K, x1 = 0.4029	–	0.414
303.15 K, x1 = 0.4099	704.666	–
303.15 K, x1 = 0.4995	–	0.397
303.15 K, x1 = 0.5053	707.798	–
303.15 K, x1 = 0.6005	711.146	–
303.15 K, x1 = 0.6099	–	0.382
303.15 K, x1 = 0.6934	714.806	–
303.15 K, x1 = 0.7072	–	0.367
303.15 K, x1 = 0.7967	719.238	–
303.15 K, x1 = 0.8975	724.303	–
308.15 K, x1 = 0.1019	–	0.443
308.15 K, x1 = 0.1059	692.484	–
308.15 K, x1 = 0.2123	694.926	–
308.15 K, x1 = 0.2189	–	0.425
308.15 K, x1 = 0.3019	697.212	–
308.15 K, x1 = 0.3026	–	0.409
308.15 K, x1 = 0.4029	–	0.393
308.15 K, x1 = 0.4099	700.213	–
308.15 K, x1 = 0.4995	–	0.376
308.15 K, x1 = 0.5053	703.231	–
308.15 K, x1 = 0.6005	706.458	–
308.15 K, x1 = 0.6099	–	0.362
308.15 K, x1 = 0.6934	709.988	–
308.15 K, x1 = 0.7967	714.261	–
308.15 K, x1 = 0.8975	719.151	–
313.15 K, x1 = 0.1019	–	0.42
313.15 K, x1 = 0.1059	688.303	–
313.15 K, x1 = 0.2123	690.652	–
313.15 K, x1 = 0.2189	–	0.402
313.15 K, x1 = 0.3019	692.842	–
313.15 K, x1 = 0.3026	–	0.387
313.15 K, x1 = 0.4029	–	0.374
313.15 K, x1 = 0.4099	695.728	–
313.15 K, x1 = 0.4995	–	0.358
313.15 K, x1 = 0.5053	698.629	–
313.15 K, x1 = 0.6005	701.736	–
313.15 K, x1 = 0.6934	705.127	–
313.15 K, x1 = 0.7967	709.24	–
313.15 K, x1 = 0.8975	713.95	–
318.15 K, x1 = 0.1019	–	0.398
318.15 K, x1 = 0.1059	684.108	–
318.15 K, x1 = 0.2123	686.345	–
318.15 K, x1 = 0.2189	–	0.381
318.15 K, x1 = 0.3019	688.444	–
318.15 K, x1 = 0.3026	–	0.367
318.15 K, x1 = 0.4029	–	0.355
318.15 K, x1 = 0.4099	691.207	–
318.15 K, x1 = 0.5053	693.985	–
318.15 K, x1 = 0.6005	696.968	–
318.15 K, x1 = 0.6934	700.224	–
318.15 K, x1 = 0.7967	704.169	–
318.15 K, x1 = 0.8975	708.696	–
323.15 K, x1 = 0.1019	–	0.377
323.15 K, x1 = 0.1059	679.876	–
323.15 K, x1 = 0.2123	682.017	–
323.15 K, x1 = 0.2189	–	0.361
323.15 K, x1 = 0.3019	684.017	–
323.15 K, x1 = 0.3026	–	0.349
323.15 K, x1 = 0.4099	686.655	–
323.15 K, x1 = 0.5053	689.306	–
323.15 K, x1 = 0.6005	692.159	–
323.15 K, x1 = 0.6934	695.271	–
323.15 K, x1 = 0.7967	699.039	–
328.15 K, x1 = 0.1019	–	0.359
328.15 K, x1 = 0.1059	675.617	–
328.15 K, x1 = 0.2123	677.665	–
328.15 K, x1 = 0.2189	–	0.344
328.15 K, x1 = 0.3019	679.549	–
328.15 K, x1 = 0.4099	682.067	–
328.15 K, x1 = 0.5053	684.587	–
328.15 K, x1 = 0.6005	687.304	–
328.15 K, x1 = 0.6934	690.272	–
333.15 K, x1 = 0.1019	–	0.342
333.15 K, x1 = 0.1059	671.333	–
333.15 K, x1 = 0.2123	673.25	–
333.15 K, x1 = 0.3019	675.046	–
333.15 K, x1 = 0.4099	677.434	–
333.15 K, x1 = 0.5053	679.825	–
333.15 K, x1 = 0.6005	682.397	–
338.15 K, x1 = 0.1059	667.018	–
338.15 K, x1 = 0.2123	668.815	–
338.15 K, x1 = 0.3019	670.514	–
338.15 K, x1 = 0.4099	672.758	–
343.15 K, x1 = 0.1059	662.68	–
343.15 K, x1 = 0.2123	664.349	–
343.15 K, x1 = 0.3019	665.923	–
343.15 K, x1 = 0.4099	668.038	–
348.15 K, x1 = 0.1059	658.279	–
348.15 K, x1 = 0.2123	659.83	–
348.15 K, x1 = 0.3019	661.299	–
353.15 K, x1 = 0.1059	653.843	–
353.15 K, x1 = 0.2123	655.28	–
353.15 K, x1 = 0.3019	656.638	–
358.15 K, x1 = 0.1059	649.405	–
358.15 K, x1 = 0.2123	650.681	–
358.15 K, x1 = 0.3019	651.917	–
363.15 K, x1 = 0.1059	644.85	–
363.15 K, x1 = 0.2123	646.031	–
363.15 K, x1 = 0.3019	647.14	–
